# From paper PMC9569593, “Measurement of Hepatic CYP3A4 and 2D6 Activity Using Radioiodine-Labeled O-Desmethylvenlafaxine” (International Journal of Molecular Sciences, 2022)
# What was measured:
# [1] = system: CYP2D6; assay: Inhibition of CYP-mediated metabolism of 125I-ODV by selective inhibitor (paroxetine); assay type: in vitro ADME; conditions: ddY, mouse, pooled mouse liver homogenate (MLH), pH 7.4, probe 125I-ODV; inhibitor 10 µM, compared with NADPH [+]
# Method: (§1) The pooled MLH was stored at −80 °C.
# (§2) For inhibition analysis of specific isozymes of CYP-mediated metabolism of ^125I-ODV, selective inhibitors of CYP isozymes employed in this study included α-naphthoflavone (an inhibitor of CYP1A1 and 1A2), sulfaphenazole (CYP2C9), fluconazole (CYP2C19), paroxetine (CYP2D6), 4-methylpyrazole (CYP2E1), and ketoconazole (CYP3A4). These selective inhibitors were used to elucidate the CYP responsible for the biotransformation of ^125I-ODV. Each inhibitor was dissolved at 10 µM (dimethyl sulfoxide 0.8% v/v final concentration). […] The sample was incubated at 37 °C for 15 min with gentle shaking. The reaction was stopped by adding 100 µL ethanol, and the sample was centrifuged for 5 min at 18,000 g.
# [2] = system: CYP3A4; design: method as in PMID 26331791; conditions: non-labeled ODV ref 11; cited from earlier work
# [3] = system: CYP3A4; assay: Inhibition of CYP-mediated metabolism of 125I-ODV by selective inhibitor (ketoconazole); assay type: in vitro ADME; conditions: ddY, mouse, pooled mouse liver homogenate (MLH), pH 7.4, probe 125I-ODV; inhibitor 10 µM, compared with NADPH [+]
# Method: as §1, §2
smiles,measurement,setting,value
Fc1ccc([C@@H]2CCNC[C@H]2COc2ccc3c(c2)OCO3)cc1 [paroxetine],"inhibition at 15 min, 10 µM",[1],79%
"CN(C)CC(c1ccc(O)cc1)C1(O)CCCCC1 (stereo not drawn) [ODV, O-desmethylvenlafaxine]",CYP isozyme metabolizing ODV,[2],metabolized only by CYP3A4
CC(=O)N1CCN(c2ccc(OCC3COC(Cn4ccnc4)(c4ccc(Cl)cc4Cl)O3)cc2)CC1 (stereo not drawn) [ketoconazole],"inhibition at 15 min, 10 µM",[3],63%
